# Measurements as given in paper PMC7061854, “Population Pharmacokinetics of Caspofungin and Dosing Optimization in Children With Allogeneic Hematopoietic Stem Cell Transplantation” (Frontiers in Pharmacology, 2020).
# Like-named read-outs stand apart in the source and are kept apart here.
# Experiments:
# clinical = format: in vivo, human; conditions: for AUC(0-t) / clearance: human, in vivo, iv; for AUC(0-t): median ± standard deviation, read-out: AUC24
# Description: A prospective, open-label pharmacokinetic study of caspofungin was performed at Wuhan Children's Hospital, Hubei Province. All designed procedures conformed to the legal requirements and the ethics committee of Wuhan Children's Hospital approved this study.
# (§1) Caspofungin has been approved for use in patients with IFI that requiring prevention treatment, especially for patients undergoing allo-HSCT. In total, 48 patients, received allo-HSCT, fulfilled the enrollment criteria and provided informed in the model building group between July 2017 and March 2019. They received caspofungin as a 1-h intravenous infusion on the basis of body surface area (BSA) with 50 mg/m^2 maintenance dose daily followed by 70 mg/m^2 loading dose on day 1.
# We performed an opportunistic sampling strategy when a steady-state caspofungin concentration had been achieved. Plasma was placed on ice and centrifuged (15,000 rpm for 5 min at +4°C) immediately and then stored at −80°C prior to analysis. Then we recorded the dosing and infusion time as well as sampling time prospectively.
# Caspofungin concentrations were detected by a high-performance liquid chromatography method (Agilent Technologies Inc., 1260 infinity) with ultraviolet (UV) performed on detection by fluorescence. The excitation wavelength was 220 nm, the column temperature was 30 °C, and the pump flow rate was 0.8 ml/min. A solution of 42% acetonitrile was used as the mobile phase. We employed 0.5 ml of serum loaded on solid-phase extraction column (Agela Technologies, Cleanert ODS C18, 200 mg/3 ml) and then eluted with 60% acetonitrile. An Innoval C18 column (Agela Technologies, 10 μm, 4.6 × 250 mm) was used for separation. The calibration curve ranged from 0.6 to 20 mg/L. The inter- and intra-assay coefficients of variation of controls were all less than 5%. The lower limit of quantification (LLOQ) was 0.6 mg/L.
# The PopPK study was performed by applying the non-linear mixed-effect modeling program Phoenix NLME (Version 8.1, Pharsight Corporation) and R program (Version 3.5.1, http://www.r-project.org/).
# We tried to describe the pharmacokinetic process of caspofungin in vivo by using the one- or two-compartment models. The scale model and exponential model were adopted for intra-individual variation and inter-individual variation respectively. A forward and backward selection process was used for covariate analysis. The effects of demographic characteristics including age, body weight (WT), height, BSA, biological parameters including uric acid (UA), serum cystatin C (Cys-C), estimated glomerular filtration rate (eGFR), alanine aminotransferase (ALT), aspartate aminotransferase (AST), and gama-glutamyltranspeptidase (gama-GT) that were investigated as potential covariates on PK parameters. eGFR was calculated according to the modified Schwarta formula ([Schwartz et al., 2009]). Mosteller formula was used to calculate the body surface area (BSA) as follows ([Yang et al., 2019]):
# BSA(m^2)=[height(cm)×weight(kg)/3600]^1/2
# During the forward selection step, the covariate causing the objective function value (OFV) decreased more than 3.84 (P < 0.05, χ2 distribution, df = 1), the covariate was included into the model, thereafter we tested the remaining covariates.
# In this study, goodness-of-fit plots, bootstrap, visual predictive check (VPC), and normalized prediction distribution errors (NPDEs) were adopted to model validation. Bootstrap resampling 1,000 times in the modeling data, and the model was established with the sampling data set. We compared the similarity between bootstrap model parameters and the parameters in final model. VPC simulated 1,000 virtual data with the final model and analyze whether the 95% confidence interval (CI) of the simulated data contains the original data. NPDEs also adopted simulation technology and simulated 1,000 times based on the final model to investigated the distribution of the standard error and perform the normal distribution test.
# [1] = system: invasive fungal infections (IFI); assay: Clinical outcome of caspofungin prophylaxis for fungal infections during HSCT; format: in vivo, human
# Description: as §1
# In this study, 48 patients received caspofungin (loading dose of 70 mg/m^2 followed by 50 mg/m^2) as prophylaxis for fungal infections for a period of HSCT. The diagnosis of IFI mainly relied on a chest computed tomography (CT), clinical symptoms, blood culture, G test, and GM test. Patients were considered a probable IFI case with a chest CT scan positive for a halo or air crescent sign and large mass flocculent shadow. Routine blood culture, as long as the patients who receive bronchoscopy are all sent to receive bronchoalveolar lavage fluid culture meanwhile high throughput sequencing to find the pathogenic bacteria. […] The culture of bronchoalveolar lavage fluid was negative in three cases for consecutive two times and positive for C. parapsilosis in one case that was identified as C. parapsilosis infection (MIC = 0.5 mg/L). […]
# C. parapsilosis [2] = assay: MIC of the isolate cultured from bronchoalveolar lavage fluid; format: cell-based, Candida parapsilosis; conditions: isolate of one failed prophylaxis case
# Description: In this study, 48 patients received caspofungin (loading dose of 70 mg/m^2 followed by 50 mg/m^2) as prophylaxis for fungal infections for a period of HSCT. The diagnosis of IFI mainly relied on a chest computed tomography (CT), clinical symptoms, blood culture, G test, and GM test. Patients were considered a probable IFI case with a chest CT scan positive for a halo or air crescent sign and large mass flocculent shadow. Routine blood culture, as long as the patients who receive bronchoscopy are all sent to receive bronchoalveolar lavage fluid culture meanwhile high throughput sequencing to find the pathogenic bacteria. […] The culture of bronchoalveolar lavage fluid was negative in three cases for consecutive two times and positive for C. parapsilosis in one case that was identified as C. parapsilosis infection (MIC = 0.5 mg/L). The median ± standard deviation of AUC24 in successful and failed cases group are 394.93 ± 91.14 mg·h/L and 352.08 ± 24.43 mg·h/L (t = 0.929, P = 0.358) at the loading dose, 300.37 ± 88.3 mg·h/L and 247.71 ± 33.67 mg·h/L (t = 1.175, P = 0.246) at the maintenance dose respectively. […] They were much lower than fungicidal target AUC24/MIC ratios ⩾ 1185 for C. parapsilosis. At the maintenance dose AUC24/MIC ratios were lower than the fungistatic target AUC24/MIC ratios ⩾ 559 for C. parapsilosis, which might lead to the failure of preventive treatment.
# C. albicans [3] = conditions: ref Andes et al., 2010; cited from earlier work
# Text: (§2) The likely success of treatment identified with the probability of target attainment (PTA) by comparing the pharmacodynamic exposure against an minimal inhibitory concentration (MIC) distribution. […] A PK/PD target was defined as the ratio AUC24/MIC for candidiasis. […] Fungistatic ...
# C. glabrata [4] = conditions: ref Andes et al., 2010; cited from earlier work
# Text: as §2
# C. albicans [5] = conditions: ref Pfaller et al.; cited from earlier work
# Description: Table 4 The area under the concentration-time curve (AUC)/minimal inhibitory concentration (MIC) target probability of target attainment (PTA) values(%) against Candida albicans, Candida glabrata, and Candida parapsilosis for caspofungin in pediatric patients. | column: AUC/MIC target PTA(%) / C. albicans MIC90 = 0.04 mg/L / Fungistatic target || Two simulation procedures were performed to calculate the probability of PK/PD target attainment with different dosing regimens based on the final model. One of the procedure is fixed MIC value of Candida app. to simulated the clinical efficacy of the different drug regimens of caspofungin in infants, children (age 2–11 years), and adolescents (age 12–14 years). According to the literature report, the MIC90 value for C. albicans, C. glabrata, and C. parapsilosis are 0.03, 0.06, and 0.5 mg/L ([Pfaller et al.]). Another simulation procedure is not fixed MIC values. The loading doses of caspofung ...
# C. glabrata [6] = conditions: ref Pfaller et al.; cited from earlier work
# Description: Table 4 The area under the concentration-time curve (AUC)/minimal inhibitory concentration (MIC) target probability of target attainment (PTA) values(%) against Candida albicans, Candida glabrata, and Candida parapsilosis for caspofungin in pediatric patients. | column: AUC/MIC target PTA(%) / C. glabrata MIC90 = 0.06 mg/L / Fungistatic target || Two simulation procedures were performed to calculate the probability of PK/PD target attainment with different dosing regimens based on the final model. One of the procedure is fixed MIC value of Candida app. to simulated the clinical efficacy of the different drug regimens of caspofungin in infants, children (age 2–11 years), and adolescents (age 12–14 years). According to the literature report, the MIC90 value for C. albicans, C. glabrata, and C. parapsilosis are 0.03, 0.06, and 0.5 mg/L ([Pfaller et al.]). Another simulation procedure is not fixed MIC values. The loading doses of caspofung ...
# C. parapsilosis [7] = conditions: ref Pfaller et al.; cited from earlier work
# Description: Table 4 The area under the concentration-time curve (AUC)/minimal inhibitory concentration (MIC) target probability of target attainment (PTA) values(%) against Candida albicans, Candida glabrata, and Candida parapsilosis for caspofungin in pediatric patients. | column: AUC/MIC target PTA(%) / C. parapsilosis MIC90 = 0.5 mg/L / Fungistatic target || Two simulation procedures were performed to calculate the probability of PK/PD target attainment with different dosing regimens based on the final model. One of the procedure is fixed MIC value of Candida app. to simulated the clinical efficacy of the different drug regimens of caspofungin in infants, children (age 2–11 years), and adolescents (age 12–14 years). According to the literature report, the MIC90 value for C. albicans, C. glabrata, and C. parapsilosis are 0.03, 0.06, and 0.5 mg/L ([Pfaller et al.]). Another simulation procedure is not fixed MIC values. The loading doses of caspofung ...
# [8] = median, children 2–12 years old, two-compartment model; ref Yang et al., 2019; cited from earlier work
# Text: Others reported weight and disease state had significant effects on caspofungin PKs in pediatric patients ([Li et al., 2011]). Xin-Mei Yang studied the PK of caspofungin in children (2–12 years old).
# [9] = Bayesian estimates, mean ± SD, all children, SD
# [10] = patients with mild liver dysfunction (40 U/L < AST ⩽ 120 U/L)
# [11] = patients with normal liver function
smiles,measurement,setting,value
"CC[C@H](C)C[C@H](C)CCCCCCCCC(=O)N[C@H]1C[C@@H](O)[C@@H](NCCN)NC(=O)[C@@H]2[C@@H](O)CCN2C(=O)[C@H]([C@H](O)CCN)NC(=O)[C@H]([C@H](O)[C@@H](O)c2ccc(O)cc2)NC(=O)[C@@H]2C[C@@H](O)CN2C(=O)[C@H]([C@@H](C)O)NC1=O [caspofungin, Caspofungin]",θ1 Bootstrap analysis Median Estimate,"clinical; 1,000-run bootstrap",0.91
same,θ2 Bootstrap analysis Median Estimate,"clinical; 1,000-run bootstrap",−0.25
same,BSA-normalized CL,clinical; [9],0.19 ± 0.04 L/m^2/h
same,BSA-normalized Vd,clinical; [9],1.72 ± 0.01 L/m^2
same,BSA-normalized CL,"clinical; adolescents, age 12–14 years, two severe liver dysfunction patients excluded",0.178 ± 0.039 L/m^2/h
same,BSA-normalized CL,"clinical; children, age 2–11 years, two severe liver dysfunction patients excluded",0.187 ± 0.031 L/m^2/h
same,θ1 (exponent for BSA as covariate) Final model Estimate,clinical; final PopPK model,0.89
same,θ2 (exponent for lnAST as covariate for CL) Final model Estimate,clinical; final PopPK model,−0.23
same,AUC(0-t),"clinical; 50 mg/m2, failed cases group, at the maintenance dose (50 mg/m^2), SD",248 ± 33.7 µg·h/mL
same,AUC(0-t),"clinical; 50 mg/m2, successful cases group, at the maintenance dose (50 mg/m^2), SD",300 ± 88.3 µg·h/mL
same,AUC(0-t),"clinical; 70 mg/m2, failed cases group, at the loading dose (70 mg/m^2), SD",352 ± 24.4 µg·h/mL
same,AUC(0-t),"clinical; 70 mg/m2, successful cases group, at the loading dose (70 mg/m^2), SD",395 ± 91.1 µg·h/mL
same,clearance,clinical; [10],1.95 mL/min
same,clearance,clinical; [11],2.67 mL/min
same,BSA-normalized CL,"clinical; infants, two severe liver dysfunction patients excluded",0.190 ± 0.015 L/m^2/h
same,θVd (L) Final model Estimate,"clinical; one-compartment PopPK model, typical value, 48 children with allo-HSCT, Vd = 1.36 × (BSA/0.79)",1.36 L
same,θCL (L·h^−1) Final model Estimate,"clinical; one-compartment PopPK model, typical value, CL = 0.14 × (BSA/0.79)^0.89 × (lnAST/3.38)^−0.23",0.14 L/h
same,estimated BSA-normalized CL,clinical; [10],0.179 ± 0.03 L/m^2/h
same,estimated BSA-normalized CL,clinical; [11],0.188 ± 0.03 L/m^2/h
same,drug-related adverse events,"[1]; 48 caspofungin recipients, standard-dose",we did not find drug-related adverse events
same,patients with prophylaxis (favorable) outcome,"[1]; 48 children with allo-HSCT, loading dose 70 mg/m^2 followed by 50 mg/m^2",92%
same,MIC,C. parapsilosis [2],0.5 µg/mL
same,Fungicidal target AUC24/MIC ratio,C. albicans [3],865
same,Fungistatic target AUC24/MIC ratio,C. albicans [3],748
same,Fungicidal target AUC24/MIC ratio,C. glabrata [4],450
same,Fungistatic target AUC24/MIC ratio,C. glabrata [4],96.2
same,MIC90,C. albicans [5],0.03 µg/mL
same,MIC90,C. glabrata [6],0.06 µg/mL
same,MIC90,C. parapsilosis [7],0.5 µg/mL
same,CL,[8],0.21 L/h/m^2
same,central volume distribution,[8],2.23 L/m^2
